# Data as given in patent US6469051B2, “Diaminorhodamine derivative” (priority 1997, dated 2002).
# Tests used:
# [1] = buffer, pH 7.4; cited from earlier work
# [2] = system: Vascular smooth muscle cells derived from rat arota; assay: Imaging of nitric oxide produced by vascular smooth muscle cells; type: cell-based
# Description: The normal lines represent fluorescence intensity of each cell and bold lines represent the averages thereof.
# Vascular smooth muscle cells derived from rat arota were cultured in a glass bottom dish, and stimulated with LPS (12.5 μg/ml), […] (150 U/ml), IL-1β (25 U/ml) and TNF-α (30 ng/ml) to induce a nitric oxide synthase. The culture was continued for about 12 hours, and then the culture medium was changed to Krebs-Ringer-phosphate buffer (KRP) in which DAR-1EE was dissolved (Example 2, 10 μM) to allow uptake of […] by the cells. The cells were cultured at 37° C. for 1 hour, and washed, and the culture medium was changed to KRP in which L-Arg or L-NMMA was dissolved. Changes in intracellular fluorescence with time was observed under a fluorescence microscope (Ex. 530-560 nm, Em. 550-610 nm, magnification: ×20).
# [3] = Changes in sensitivity (absorbance, fluorescence intensity) at varying pHs; type: physicochemical; conditions: about 1 μM in 78 mM phosphate buffer, neutral to weakly acidic, approximately pH 4; Ex. 565 nm-Em. 580 nm
# Description: DAR-1T was dissolved in purified water to prepare a solution of a concentration of 100 μM. The solution was added to phosphate buffer (78 mM) adjusted to each pH at a final concentration of about 1 μM, and absorbance and fluorescence intensity were measured. The measurement wavelengths of fluorescence were set to Ex. 565 nm-Em. 580 nm. In the figure, (a) represent the results of the absorptiometric measurement and (b) represents the results of fluorescence intensity measurement.
# [4] = Fluorescence maximum wavelengths; type: physicochemical
# Excerpt: Maximum wavelengths: Ex. 565 nm-Em. 580 nm
smiles,measurement,setting,value
CCNCCN(CC)N(O)N=O [NOC-12],half life,[1],5.45 h
"CCOC(=O)c1c(-c2c3ccc(=[N+](CC)CC)cc-3oc3cc(N(CC)CC)ccc23)ccc(N)c1N [DAR-1EE, [9-(3,4-diamino-2-ethoxycarbonylphenyl)-6-diethylamino-3H-xanthen-3-ylidene]diethyliminium]","intracellular fluorescence intensity with time, nitric oxide producing cells","[2]; 10 μM DAR-1EE loaded 1 hour at 37° C., stimulated cells (LPS, INF, IL-1β, TNF-α), 1 mM L-Arg",Fluorescence intensity increased with time
same,"intracellular fluorescence intensity with time, cells producing no nitric oxide (non-stimulated)","[2]; 10 μM DAR-1EE loaded, non-stimulated cells, 1 mM L-Arg",substantially no change in fluorescence intensity
same,"intracellular fluorescence intensity with time, cells added with the NOS inhibitor","[2]; 10 μM DAR-1EE loaded, stimulated cells, 1 mM L-Arg+10 mM NMMA",substantially no change in fluorescence intensity
same,cellular uptake and intracellular hydrolysis,"[2]; 10 μM in KRP, 37° C., 1 hour",uptaken into the cells and hydrolyzed
"CCN(CC)c1ccc2c(-c3ccc4nn[nH]c4c3C(=O)O)c3ccc(=[N+](CC)CC)cc-3oc2c1 [DAR-1T, [9-(7-carboxybenzotriazol-6-yl)-6-diethylamino-3H-xanthen-3-ylidene]diethyliminium]",fluorescence intensity as a function of pH,[3],no changes in fluorescence intensity
same,Maximum wavelength Em.,[4]; emission,580 nm
same,Maximum wavelength Ex.,[4]; excitation,565 nm
